Data on 19 compounds can be found in PubChem BioAssay (NCI).

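Growth conditions: 96-well plates. Treatment: test compound, 48 hours, 5 concentrations. Analysis: linear interpolation between bracketing concentrations; unreached endpoints set to highest concentration. Definition used: TGI = concentration required for complete inhibition of growth.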 Bounds are passed on as bounds.

What all share (assay): NCI-60 cell line screen, 48 h
Test [1] relates to HOP-62 NSCLC.
Test [2] has as its system MALME-3M melanoma.
The test system of test [3] is A549 NSCLC.
In test [4] the test system is NCI-H226 lung.
Test [5] concerns NCI-H23 lung.
For test [6], the system named is COLO 205 colon.
Test [7] has as its system TK-10 renal.
In test [8] the test system is ACHN renal.
The test system of test [9] is BT-549 breast.
In test [10] the test system is EKVX NSCLC.
The subject of test [11] is HT29 colon.
Test [12] deals with RXF 393 renal.
The subject of test [13] is SNB-19 CNS.
For test [14], the system named is M14 melanoma.
In test [15] the test system is SNB-75 CNS.
Test [16] has as its system DU-145 prostate.
The test system of test [17] is NCI-H522 lung.
The test system of test [18] is T-47D breast.

Turning to `CCOC(=O)N(NC(=O)NC(C)C)c1ccccc1`, the TGI in [1], in test [2], in [3], in test [4], in [5] and in test [6] was more than 100 µM in each case. Further, the TGI in test [7], in test [8], in test [9], in [10], in test [11] and in [12] was more than 100 µM each time. Further, the TGI in test [13], in test [14] and in test [15] was more than 100 µM throughout.

In the case of `COc1ccc(C[C@@H](CO)NC2=C(C#N)CCC2)cc1`, the TGI in [1], in [2], in test [3], in test [4], in test [16] and in test [5] was more than 100 µM each time. Also, the TGI in test [6], in [7], in [8], in test [9], in test [10] and in [11] was more than 100 µM each time. Moreover, the TGI in [12] is more than 100 µM; in test [13] it was more than 100 µM; in [14], more than 100 µM; in test [15], 95.1 µM.

With `O=[N+]([O-])c1ccc2c(c1)S(=O)(=O)N1Cc3ccccc3CCN21`, the TGI in test [1], in test [2], in test [3], in test [4], in test [17] and in test [16] was more than 100 µM throughout. Moreover, the TGI in test [5], in test [6], in test [7], in test [8], in test [10] and in test [11] was more than 100 µM throughout. Moreover, the TGI in test [12], in test [13], in [14] and in [15] was more than 100 µM in each case.

Consider `O=C(Cn1c2c(c3ccccc31)CCCC2)N1CCCC1`, for which the TGI in [1], in test [2], in [3], in test [5], in test [6] and in test [7] was more than 100 µM in each case. Besides, the TGI in test [8], in test [9], in test [10], in test [11], in [13] and in test [14] was more than 100 µM each time.

For `Nc1nc(Cl)c(CO)c(NCC2(CO)CC(CCc3ccccc3)C2)n1` (stereo not given), the TGI was 99.3 µM in [1]; 42.5 µM in test [2]; 34.5 µM in [3]; 36.3 µM in [4]; 86.3 µM in test [17]; more than 100 µM in test [16]. In addition, the TGI in [5] was 37.5 µM; in test [6] it was more than 100 µM; in test [7] it was more than 100 µM; in test [8], more than 100 µM; in [9], 71.1 µM; in [10], more than 100 µM. The TGI was 81.6 µM in [11], 63 µM in test [12], more than 100 µM in [13] and 51.2 µM in [15].

Regarding `COC(=O)/C=C(/C=C1/C(C#N)=C(N)N(c2ccc(Cl)cc2)C1(C)/C(=C/C(=O)OC)C(=O)OC)C(=O)OC` (stereo not given), the TGI in [1], in [2], in test [17], in [16], in [5] and in [6] was more than 100 µM each time. The TGI in test [7], in [8], in test [18], in test [10], in [11] and in [13] was more than 100 µM in each case. Moreover, the TGI in [14] is more than 100 µM; in test [15], 76 µM.

In the case of `COc1ccc2c(c1)C(=O)Cc1ccccc1CC2`, the TGI in [2], in test [3], in test [4], in [17], in test [5] and in test [6] was more than 100 µM throughout. For the same compound, the TGI in [7], in test [8], in [10], in test [11], in test [12] and in [13] was more than 100 µM in each case. The TGI in test [14] and in test [15] was more than 100 µM in each case.

Consider `CCOCc1c(C)cc(C)c(C2C(C(=O)c3ccccc3)N3c4ccccc4C=CC3C2(C#N)C(=O)OCC)c1C` (stereo not given), for which the TGI in test [16] was more than 100 µM; in test [5], more than 100 µM; in test [6], 53.7 µM; in test [8] it was more than 100 µM; in test [9], 75.8 µM; in [10], 67.3 µM. Also, the TGI in [11], in [12], in test [13] and in test [14] was more than 100 µM each time.

`O=C1c2ccccc2C(=O)c2c1cc(S(=O)(=O)O)c(O)c2O`: the TGI in test [1], in [3], in test [4], in test [17], in test [5] and in [6] was more than 100 µM in each case. Besides, the TGI in test [7], in [8], in [10], in test [11], in [12] and in test [14] was more than 100 µM each time. The compound further displayed a TGI in test [15] of more than 100 µM.

With `[Cl-].[Rh+3].c1cnc2c(c1)ccc1cccnc12.c1cnc2c(c1)ccc1cccnc12.c1cnc2c(c1)ccc1cccnc12`, the TGI in test [1], in test [2], in test [3], in test [17], in test [5] and in [8] was more than 100 µM throughout. The TGI in test [10] was more than 100 µM; in test [11], more than 100 µM; in test [14] it was 29 µM; in test [15] it was more than 100 µM.

Regarding `Nc1nc(I)nc2c1ncn2C1OC(COS(N)(=O)=O)C(O)C1O` (stereo not given), the TGI in [1] was 0.0836 µM; in test [2], less than 0.01 µM; in test [3], 0.201 µM; in [4], less than 0.0159 µM; in test [17] it was less than 0.01 µM; in test [16], less than 0.0193 µM. The TGI came out at 0.0324 µM in [5]; 0.0167 µM in [6]; 0.071 µM in test [7]; 0.211 µM in [8]; 0.103 µM in test [9]; 0.0573 µM in [10]. Further, the TGI is 0.0353 µM in test [11]; 0.0441 µM in test [12]; less than 0.013 µM in test [13]; 0.028 µM in test [14]; less than 0.0136 µM in test [15].

Consider `NCCCCC(NC(=O)C(N)Cc1ccc(O)cn1)C(=O)O` (stereo not given), for which the TGI in test [1], in test [2], in [3], in test [4], in test [17] and in test [16] was more than 100 µM throughout. Further, the TGI in test [5], in [6], in test [7], in test [8], in [9] and in [10] was more than 100 µM in each case. The TGI in test [11], in test [12] and in [13] was more than 100 µM each time.

`O/N=C/c1ncccc1C1OCCO1`: the TGI in test [1], in [2], in test [3], in test [4], in [17] and in test [5] was more than 100 µM each time. Moreover, the TGI in test [6], in test [7], in test [8], in test [10], in test [11] and in test [12] was more than 100 µM throughout. For the same compound, the TGI in test [13], in test [14] and in test [15] was more than 100 µM each time.

For `CCN(CC)CCn1nc(N)c2nc3ccccc3nc21`, the TGI in [1], in [2], in test [3], in test [4], in test [17] and in test [5] was more than 100 µM throughout. Besides, the TGI in test [7], in test [8], in [9], in [10], in test [11] and in test [12] was more than 100 µM throughout. For the same compound, the TGI in test [13], in [14] and in test [15] was more than 100 µM each time.

As to `CC(C)(C)OC(=O)CN1C(=O)CC1CC(=O)c1ccccc1` (stereo not given), the TGI was 34.2 µM in test [1]; 31.9 µM in test [2]; more than 100 µM in [3]; 43.5 µM in test [4]; 33.7 µM in [17]; 34.2 µM in [16]. The TGI in [5] was determined as 36.5 µM; in [6], 49.6 µM; in test [7], 93.2 µM; in [8] it was 41.7 µM; in [9] it was 35.5 µM; in test [10] it was 35.7 µM. In addition, the TGI came out at 37.4 µM in test [11], 43.5 µM in test [12], 41.9 µM in test [13] and 30.4 µM in test [14].

As for `O=S(=O)(O)C1=C2Sc3ccccc3N=C2c2ccccc2C1`, the TGI in [1] came to 35 µM; in [2], 30 µM; in test [3] it was 34.3 µM; in [4], 35.5 µM; in test [17], 31.3 µM; in [5], 31.1 µM. For the same compound, the TGI in test [6] was determined as 30.3 µM; in test [7], 32.9 µM; in [8] it was 25.1 µM; in test [10], 32 µM; in [11], 40 µM; in test [12] it was 35.1 µM. For the same compound, the TGI in test [13] amounted to 51.6 µM; in test [14] it was 25.5 µM; in test [15], 32.5 µM.

Regarding `O=c1[nH]c(=O)n(CCOc2ccccc2)cc1Nc1ccccc1`, the TGI in test [1] was 87.4 µM; in test [2], more than 100 µM; in test [3], more than 100 µM; in test [17], more than 100 µM; in [16] it was more than 100 µM; in [5], more than 100 µM. The TGI in test [6], in [8], in [10], in [11], in test [12] and in test [13] was more than 100 µM each time. The TGI in [14] was more than 100 µM.

As to `Cc1cccc(C(C)C)c1NC(=O)/C(Cc1c([N+](=O)[O-])cccc1[N+](=O)[O-])=N/NC(=O)CC#N`, the TGI in [2], in test [3], in test [4], in test [17], in [6] and in test [7] was more than 100 µM each time. Besides, the TGI in test [8], in test [10], in [11], in test [12], in test [13] and in test [14] was more than 100 µM in each case. This compound also came in with a TGI in [15] of more than 100 µM.

For `NC(=S)N1N=C2c3ccccc3CC[C@@H]2[C@@H]1c1ccccc1`, the TGI was more than 59.1 µM in test [1]; 66.7 µM in test [2]; more than 60.2 µM in test [3]; 45.6 µM in test [4]; 4.53 µM in [17]; 19 µM in test [5]. Also, the TGI was 16.8 µM in test [6]; more than 68 µM in [7]; more than 88.9 µM in test [8]; more than 81.8 µM in test [10]; 15.6 µM in test [11]; 41.5 µM in test [12]. Besides, the TGI is more than 100 µM in test [13], 31.1 µM in [14] and 35.6 µM in [15].
